SMILES strings stand for the structures.

One assay has as its system Isolated Rat Bladder Strips. Kind of assay: Inhibition of contractions in isolated rat bladder strips (KCl-enhanced contractile activity; smooth muscle relaxation). It counts as cell-based, Sprague-Dawley rats. The conditions noted are these: 0.5 h; isolated rat bladder strips, 15 mM additional KCl, 30 minute challenge; read-out: IC50 (50% inhibition of pre-drug contractile activity). The source says: The smooth muscle relaxing activity of the compounds of this invention was established in accordance with standard pharmaceutically accepted test procedures with representative compounds as follows:
Sprague-Dawley rats (150-200 g) are rendered unconscious by CO2 asphyxiation and then euthanized by cervical dislocation. The bladder is removed into warm (37 deg.C) physiological salt solution (PSS) of the following composition (mM): NaCl, 118.4; KCl, 4.7; CaCl2, 2.5; MgSO4, 4.7; H2 O, 1,2; NaHCO3, 24.9; KH2 PO4, 1,2; glucose, 11.1; EDTA, 0.023; gassed with […]; pH 7.4. The bladder is opened and then dut into strips 1-2 mm in width and 7-10 mm in length. The strips are subsequently suspended in a 10 mL tissue bath under an initial resting tension of 1.5 g. The strips are held in place by two surgical clips one of which is attached to a fixed hook while the other is attached to an isometric force transducer. […] The carbachol is then washed out and the tissue allowed to relax to its resting level of activity. Following a further 30 min period of recovery an additional 15 mM KCl are introduced into the tissue bath. This increase in KCl concentration results in a large increase in the amplitude of spontaneous contractions (and initiation of contractions in previously quiescent strips) superimposed upon a small increase in basal tone. Following stabilization of this enhanced level of contractile activity, incremental increases in the concentration of test compound or vehicle are introduced into the tissue bath. Contractile activity is measured for each compound or vehicle concentration during the last minute of a 30 minute challenge.
The isometric force developed by the bladder strips is measured using a […] to elicit 50% inhibition of pre-drug contractile activity (IC50 concentration) and is calculated from this concentration-response curve.
The IC50 is the midpoint of a concentration-inhibition curve. Regarding `CCC(C)(C)Nc1c(NCc2ccc(F)cc2F)c(=O)c1=O` [Example 62, 3-(2,4-Difluoro-benzylamino)-4-(1,1-dimethyl-propylamino)-cyclobut-3-ene-1,2-dione], the IC50 was found to be 220 ± 40 nM.

Turning to `CCC(C)(C)Nc1c(NCc2ccc(F)cc2Cl)c(=O)c1=O` [Example 63, 3-(2-Chloro-4-fluoro-benzylamino)-4-(1,1-dimethyl-propylamino)-cyclobut-3-ene-1,2-dione], the concentration for half-maximal inhibition (IC50) stood at 1500 ± 1000 nM. Consider `CC(C)(C)Nc1c(NCc2cc(C(F)(F)F)ccc2F)c(=O)c1=O` [Example 64, 3-tert-Butylamino-4-(2-fluoro-5-trifluoromethyl-benzylamino)-cyclobut-3-ene-1,2-dione], for which the IC50 amounted to 4900 ± 2700 nM. The same measure, in the same setting: next, `C[C@@H](Nc1c(NCc2cc(F)ccc2Cl)c(=O)c1=O)C(C)(C)C` [Example 65, 3-(2-Chloro-5-fluoro-benzylamino)-4-(1,2,2-trimethyl-propylamino)-cyclobut-3-ene-1,2-dione]: 850 ± 410 nM.

As to `C[C@@H](Nc1c(NCc2cc(F)ccc2F)c(=O)c1=O)C(C)(C)C` [Example 66, 3-(2.5-Difluoro-benzylamino)-4-(1,2,2-trimethyl-propylamino)-cyclobut-3-ene-1,2-dione], the half-maximal inhibitory concentration (IC50) is 980 ± 400 nM. The same measure, in the same setting: next, `CC(C)(C)Nc1c(NCc2ccc(F)c(Cl)c2)c(=O)c1=O` [Example 67, 3-tert-Butylamino-4-(3-chloro-4-fluoro-benzylamino)-cyclobut-3-ene-1,2-dione]: 5300 ± 1200 nM. Same read-out and setting: to `CC(C)(C)Nc1c(NCc2ccc(F)c(F)c2)c(=O)c1=O` [Example 68, 3-tert-Butylamino-4-(3,4-difluoro-benzylamino)-cyclobut-3-ene-1,2-dione] belongs 2200 ± 800 nM; to `C[C@@H](Nc1c(NCc2ccc(F)c(Cl)c2)c(=O)c1=O)C(C)(C)C` [Example 69, 3-(3-Chloro-4-fluoro-benzylamino)-4-(1,2,2-trimethyl-propylamino)-cyclobut-3-ene-1,2-dione], 5400 ± 2100 nM; to `CCC(C)(C)Nc1c(NCc2ccc(F)c(F)c2)c(=O)c1=O` [Example 70, 3-(3,4-Difluoro-benzylamino)-4-(1,1-dimethyl-propylamino)-cyclobut-3-ene-1,2-dione], 1600 ± 770 nM.

`CC(C)(C)Nc1c(NCc2cc(F)cc(F)c2)c(=O)c1=O` [Example 71, 3-tert-Butyl amino-4-(3,5-difluoro-benzylamino)-cyclobut-3-ene-1,2-dione]: the IC50 is 2600 ± 400 nM. Same read-out and setting: to `CC(C)(C)Nc1c(NCc2cc(F)cc(C(F)(F)F)c2)c(=O)c1=O` [Example 72, 3-tert-Butylamino-4-(3-fluoro-5-trifluoromethyl-benzylamino)-cyclobut-3-ene-1,2-dione] belongs 6500 ± 3600 nM.

Regarding `CC(C)(C)Nc1c(NCc2cc(C(F)(F)F)cc(C(F)(F)F)c2)c(=O)c1=O` [Example 73, 3-(3.5-Bis-trifluoromethyl-benzylamino)-4-tert-butylamino-cyclobut-3-ene-1,2-dione], the concentration for half-maximal inhibition (IC50) turned out to be 23500 ± 8100 nM. Turning to `CCC(C)(C)Nc1c(NCc2cc(F)cc(F)c2)c(=O)c1=O` [Example 74, 3-(3,5-Difluoro-benzylamino)-4-(1,1-dimethyl-propylamino)-cyclobut-3-ene-1,2-dione], the half-maximal inhibitory concentration (IC50) was 750 ± 450 nM. Turning to `CC(Nc1c(NCc2ccc(C#N)cc2Cl)c(=O)c1=O)C(C)(C)F` (centres unmarked) [Example 75, 3-Chloro-4-{[2-(2-fluoro-1,2-dimethyl-propylamino)-3,4-dioxo-cyclobut-1-enylamino]-methyl)-benzonitrile], the concentration for half-maximal inhibition (IC50) is 1590 ± 270 nM. As to `CCC(C)(C)Nc1c(N(Cc2ccc(C#N)cc2Cl)C(C)=O)c(=O)c1=O` [Example 77, N-(2-Chloro-4-cyano-benzyl)-N-[2-(1,1-dimethyl-propylamino)-3,4-dioxo-cyclobut-1-enyl)-acetamide], the half-inhibitory concentration (IC50) is 2200 ± 950 nM. Same read-out and setting: to `CCCC(=O)N(Cc1ccc(C#N)cc1Cl)c1c(NC(C)(C)CC)c(=O)c1=O` [Example 78] belongs 2800 ± 1300 nM. Still for that read-out and setting: next, `CCC(C)(C)Nc1c(NCc2ccc(C)cc2C)c(=O)c1=O` [Example 79, 3-(2.4-Dimethyl-benzylamino)-4-(1,1-dimethyl-propylamino)-cyclobut-3-ene-1,2-dione]: 530 ± 230 nM; `CCC(C)(C)Nc1c(NCc2cccc(C)c2C)c(=O)c1=O` [Example 80, 3-(2,3-Dimethyl-benzylamino)-4-(1,1-dimethyl-propylamino)-cyclobut-3-ene-1,2-dione]: 5000 ± 3500 nM. Still for that read-out and setting: next, `CCC(C)(C)Nc1c(NCc2c(C)cc(C)cc2C)c(=O)c1=O` [Example 81, 3-(1,1-Dimethyl-propylamino)-4-(2,4,6-trimethyl-benzylamino)-cyclobut-3-ene-1,2-dione]: 310 ± 80 nM; `CC(C)(C)Nc1c(NCc2cc(Cl)ccc2Cl)c(=O)c1=O` [Example 82, 3-tert-Butylamino-4-(2,5-dichloro-benzylamino)-cyclobut-3-ene-1,2-dione]: 680 ± 240 nM; `CCC(C)(C)Nc1c(NCc2cc(Cl)ccc2Cl)c(=O)c1=O` [Example 83, 3-(2.5-Dichloro-benzylamino)-4-(1,1-dimethyl-propylamino)-cyclobut-3-ene-1,2-dione]: 810 ± 320 nM.

For the compound `Cc1ccc(CNc2c(NC(C)(C)C)c(=O)c2=O)cc1C` [Example 84, 3-tert-Butylamino-4-(3,4-dimethyl-benzylamino)-cyclobut-3-ene-1,2-dione], the half-inhibitory concentration (IC50) was 1600 ± 180 nM. `Cc1cc(C)cc(CNc2c(NC(C)(C)C)c(=O)c2=O)c1` [Example 86, 3-tert-Butylamino-4-(3,5-dimethyl-benzylamino)-cyclobut-3-ene-1,2-dione]: the 50% inhibitory concentration (IC50) was 5100 ± 960 nM. As to `CCC(C)(C)Nc1c(NCc2cc(Cl)cc(Cl)c2)c(=O)c1=O` [Example 88, 3-(3,5-Dichloro-benzylamino)-4-(1,1-dimethyl-propylamino)-cyclobut-3-ene-1,2-dione], the half-maximal inhibitory concentration (IC50) is 7300 ± 6000 nM. In the case of `CC(C)(C)Nc1c(NCc2cc(Cl)cc(Cl)c2)c(=O)c1=O` [Example 89, 3-tert-Butylamino-4-(3.5-dichloro-benzylamino)-cyclobut-3-ene-1,2-dione], the IC50 is 2300 ± 850 nM. In the case of `CC(C)(CO)Nc1c(NCc2ccc(C#N)cc2Cl)c(=O)c1=O` [Example 93, 3-Chloro-4-{[2-(2-hydroxy-1,1-dimethyl-ethylamino)-3,4-dioxo-cyclobut-1-enylamino]-methyl}-benzonitrile], the concentration for half-maximal inhibition (IC50) came to 8100 ± 2000 nM.

On to `CCC(C)(C)Nc1c(NCc2cc(C)ccc2C)c(=O)c1=O` [Example 94, 3-(2,5-Dimethyl-benzylamino)-4-(1,1-dimethyl-propylamino)-cyclobut-3-ene-1,2-dione], for which the IC50 was 1910 ± 840 nM. Turning to `Cc1ccc(C)c(CNc2c(NC(C)(C)C)c(=O)c2=O)c1` [Example 95, 3-(t-Butylamino)-4-(2.5-dimethyl-benzylamino)-cyclobut-3-ene-1,2-dione], the 50% inhibitory concentration (IC50) was 1500 ± 300 nM. Same read-out and setting: to `Cc1c(Cl)cccc1CNc1c(NC(C)(C)C)c(=O)c1=O` [Example 96, 3-tert-Butylamino-4-(3-chloro-2-methyl-benzylamino)-cyclobut-3-ene-1,2-dione] belongs 1300 ± 300 nM. On to `CCC(C)(C)Nc1c(NCc2cccc(Cl)c2C)c(=O)c1=O` [Example 97, 3-(3-Chloro-2-methyl-benzylamino)-4-(1,1-dimethyl-propylamino)-cyclobut-3-ene-1,2-dione], for which the IC50 amounted to 280 ± 25 nM. Consider `CC(=O)N(Cc1ccc(C#N)cc1Cl)c1c(NC(C)(C)C)c(=O)c1=O` [Example 98, N-(2-tert-Butylamino-3,4-dioxo-cyclobut-1-enyl)-N-(2-chloro-4-cyano-benzyl)-acetamide], for which the half-inhibitory concentration (IC50) turned out to be 20300 ± 790 nM.

The same assay, now with this note: Rattus norvegicus, 0.5 h; read-out: Percent contraction at 30 μM (C).
As to `CCCC(=O)N(Cc1ccc(C#N)cc1Cl)c1c(NC(C)(C)CC)c(=O)c1=O` [Example 78], the percent contraction at 30 µM is 28.5 ± 8.7%.

Staying with this assay, now noted: Rattus norvegicus; read-out: Percent inhibition at 30 μM (I).
The inhibition is the relative decrease from the control value, in per cent. For the compound `CC(C)(C)Nc1c(NCc2ccc(F)c(Cl)c2)c(=O)c1=O` [Example 67, 3-tert-Butylamino-4-(3-chloro-4-fluoro-benzylamino)-cyclobut-3-ene-1,2-dione], the inhibition at 30 µM was determined as 47.7%. The same measure, in the same setting: to `CC(C)(C)Nc1c(NCc2cc(C(F)(F)F)cc(C(F)(F)F)c2)c(=O)c1=O` [Example 73, 3-(3.5-Bis-trifluoromethyl-benzylamino)-4-tert-butylamino-cyclobut-3-ene-1,2-dione] belongs 35.8 ± 4.9%; to `CCC(C)(C)Nc1c(N(Cc2ccc(C#N)cc2Cl)C(C)=O)c(=O)c1=O` [Example 77, N-(2-Chloro-4-cyano-benzyl)-N-[2-(1,1-dimethyl-propylamino)-3,4-dioxo-cyclobut-1-enyl)-acetamide], 25%; to `CCCC(=O)N(Cc1ccc(C#N)cc1Cl)c1c(NC(C)(C)CC)c(=O)c1=O` [Example 78], 18 ± 6.5%. Same read-out and setting: to `CCC(C)(C)Nc1c(NCc2ccc(C)c(C)c2)c(=O)c1=O` [Example 85, 3-(3A-Dimethyl-benzylamino)-4-(1,1-dimethyl-propylamino)-cyclobut-3-ene-1,2-dione] belongs 35.1 ± 4.4%; to `CCC(C)(C)Nc1c(NCc2cc(C)cc(C)c2)c(=O)c1=O` [Example 87, 3-(3.5-Dimethyl-benzylamino)-4-(1,1-dimethyl-propylamino)-cyclobut-3-ene-1,2-dione], 13.6 ± 8.4%.

With `Cc1ccc(CNc2c(NC(C)(C)C)c(=O)c2=O)cc1Cl` [Example 90, 3-tert-Butylamino-4-(3-chloro-4-methyl-benzylamino)-cyclobut-3-ene-1,2-dione], the inhibition at 30 µM worked out at 16.6 ± 3.6%. `CCC(C)(C)Nc1c(NCc2ccc(C)c(Cl)c2)c(=O)c1=O` [Example 91, 3-(3-Chloro-4-methyl-benzylamino)-4-(1,1-dimethyl-propylamino)-cyclobut-3-ene-1,2-dione]: the inhibition at 30 µM amounted to 30.7 ± 6.7%. Same read-out and setting: next, `CC(C)(CO)Nc1c(NCc2ccc(C#N)cc2Cl)c(=O)c1=O` [Example 93, 3-Chloro-4-{[2-(2-hydroxy-1,1-dimethyl-ethylamino)-3,4-dioxo-cyclobut-1-enylamino]-methyl}-benzonitrile]: 44%.

Source of the values: patent US5780505A, “Substituted N-arylmethylamino derivatives of cyclobutene-3, 4-diones” (American Home Products Corporation, priority 1997, dated 1998).
